Measured values: patent US20220177877A1, “HIGHLY MULTIPLEXED BASE EDITING” (President and Fellows of Harvard College, priority 2019, published 2022)

What was measured:
LINE-1 [1] = experiment: FACS single cell direct NGS of targeted deamination, HEK 293T; format: cell-based, human; settings: for Mean target deamination % / Percent of cells with targeted deamination / Number of cells with targeted deamination: HEK 293T; for Mean target deamination % / Percent of cells with targeted deamination: Day 2; for Number of cells with targeted deamination: Day 2, 96 analyzed cells
Method: To quantify early genetic editing in cells transfected with Cas9/BE and gRNA expression plasmids, single cells were sorted and prepared as follows. Two days post-transfection, single cells were FACS-sorted into 96-well PCR plates containing 10 μL of QUICKEXTRACT™ DNA Extraction Solution (Epicentre Cat. #QE09050) per well and genomic DNA (gDNA) was extracted using the manufacturer's protocol. Briefly, the sorted plates were sealed, vortexed and heated at 65° C. for 6 minutes then 98° C. for 2 minutes. The NGS library was prepared as described later below.
(§1) Library preparation was conducted as previously described^5.

LINE-1 [2] = system: LINE-1
Method: (§2) Single cells were FACS-sorted into flat bottom 96-well plates containing 100 μL of DMEM with 10% FBS and 1% Penicillin/Streptomycin per well. Sorted plates were incubated for ˜14 days until well-characterized colonies were visible, with periodic media changes performed as necessary. To extract gDNA, the cells were first detached using 30 μL TRYPLE™ Express (Thermofisher Cat. #12604021) and neutralized with 30 μL growth media. Then, 4 μL of the resulting cell suspension was transferred to 10 μL of QE. Genomic DNA was extracted according to manufacturer's protocol, as described previously.
(§3) Library preparation was conducted as previously described^5. Briefly, genomic DNA was amplified using locus-specific primers attached to part of the Illumina adapter sequence. A second round of PCR included the index sequence and the full Illumina adapter. All PCRs were carried out using KAPA HiFi HotStart ReadyMix (KAPA Biosystems KK2602) according to the manufacturer's thermocycler conditions. Libraries were purified using gel extraction (Qiagen Cat. #28706), quantified using Nanodrop and pooled together for deep sequencing on the MiSeq using 150 paired end (PE) reads.
(§4) All paired end reads were aligned to the reference genome using bowtie2, and the resulting alignment files were converted to bam, sorted, indexed, and variant called using samtools^7. All SNV data within a 30 bp window from the 5′ start of the gRNA proceeding through the PAM and extending an additional seven bp's (for a 20 bp gRNA) are reported to analyze the editing window and purity of editing.

LINE-1 [3] = experiment: Single cell clonal isolation and sequence verification of live edited HEK 293T clones; settings: for Mean target deamination % / Number of cells with targeted deamination / Percent of cells with targeted deamination: HEK 293T, Day 14; for non-specific nucleotide conversions in gRNA and PAM: most highly edited clone versus parental 293T control
Method: as §2, §3, §4

LINE-1 [4] = experiment: NGS base editing deamination analysis, bulk transfected HEK 293T; format: cell-based, human; settings: for gRNAs with above control levels of base editing in genomic DNA: HEK 293T, LINE-1 gRNAs
Method: as §1

LINE-1 [5] = experiment: Line-1 subfamily analysis and matches to HL1gR4 (HL1gR4 PCR products); parameters: species or system human; settings: for Reads: Total Reads 35520
[6] = HL1gR6, 3 days after transfection
[7] = 293T, HL1gR4, two days post-transfection

Method for single-locus targets: HEK 293T cells were obtained from ATCC with verification of cell line identification and mycoplasma negative results. They were expanded using 10% fetal bovine serum (FBS) in high-glucose DMEM with glutamax passaging at a typical rate of 1:100 and maintained at 37° C. with 5% CO2. Transfection was conducted using Lipofectamine 2000 (ThermoFisher Catalogue #11668019) using the protocol recommended by the manufacturer with slight modifications outlined below. 24 hours before transfection ˜1.0×10^5 cells were seeded per well in a 12-well plate along with 1 mL of media. A total of 2 μg of DNA and 2 μL of Lipofectamine 2000 were used per well. For Cas9 plasmids, the DNA content per well was 1 μg of pCas9_GFP mixed with 1 μg of gRNA-expressing plasmid. For BE plasmids, 1.5 μg of BE was mixed with 0.5 μg of gRNA plasmid. In the dBE vs nBE comparison used to generate FIGS. 4A-4C, Pifithrin-α (10 ng/μ1) from Sigma-Aldrich P4359 (source #063M4741V, Batch #0000003019) was added to the media 30 minutes before transfection and maintained in the first day media change.
Raw Illumina sequencing data was demultiplexed using bcl2fastq. All paired end reads were aligned to the reference genome using bowtie2^49 and the resulting alignment files were parsed for their cigar string to determine the position and size of all indels within each read using a custom perl script (https://github.com/CRISPRengineer/mutation_indel). All indels that were sequenced in both the forward and reverse reads were summed across all reads and reported for each sample along with the total number of reads. Indels within a 30 bp window from the 5′ start of the gRNA proceeding through the PAM and extending an additional seven bp's (for a 20 bp gRNA) were counted and summed for each sample.
as §4

Substance: dCBE4-gam: nick-less dCas9 cytidine base editor with mu-gam (H840A), SEQ ID NO: 108
- mean target nucleotide deamination frequency compared to nBE equivalents (LINE-1 [1]; 293T, HL1gR4, 2 days after transfection): significant reductions
- Mean target deamination % (LINE-1 [1]): 4.43%
- Percent of cells with targeted deamination (LINE-1 [1]): 41.7%
- Number of cells with targeted deamination (LINE-1 [1]): 40
- Number of analyzed cells (LINE-1 [2]): 29
- indel activity (single-locus targets): reduced to background levels
- total number of chromosomal aberrations of top edited clones (HEK 293T): not significantly different than control groups
- Mean target deamination % (LINE-1 [3]): 3.05%
- Number of cells with targeted deamination (LINE-1 [3]): 20
- Percent of cells with targeted deamination (LINE-1 [3]): 69%
- increase in mean editing frequency among surviving live clones compared to nicking counterpart (LINE-1 [3]; day 14): 2.38 fold
- non-specific nucleotide conversions in gRNA and PAM (LINE-1 [3]): some non-specific nucleotide conversions

Substance: nABE: ecTadA(wt)-linker(32aa)-ecTadA*(7.10)-linker(32aa)-nCas9-NLS, SEQ ID NO: 15, Addgene #102919
- gRNAs with above control levels of base editing in genomic DNA (LINE-1 [4]): 4 out of 5
- editing efficiency (LINE-1 [4]; [6]): 4.94%
- loci edited (LINE-1 [4]; [6]): ~1290 loci
- Mean target deamination % (LINE-1 [1]): 5.32%
- Percent of cells with targeted deamination (LINE-1 [1]): 60.4%
- Number of cells with targeted deamination (LINE-1 [1]): 58
- decrease in editing efficiency at the early timepoint (LINE-1 [1]; nABE 5.32% versus dABE 1.45%): 3.67 fold
- Number of analyzed cells (LINE-1 [2]): 16
- total number of chromosomal aberrations of top edited clones (HEK 293T): not significantly different than control groups
- Mean target deamination % (LINE-1 [3]): 0.88%
- Number of cells with targeted deamination (LINE-1 [3]): 4
- Percent of cells with targeted deamination (LINE-1 [3]): 25%
- non-specific nucleotide conversions in gRNA and PAM (LINE-1 [3]): not

Substance: dCBE4: nick-less dCas9 cytidine base editor (H840A), SEQ ID NO: 107
- indel activity (single-locus targets): reduced to background levels
- improvement in editing efficiency over CBE2 (single-locus targets; 293T cells, day five): 2.38 fold
- reduction in efficiency compared to nicking counterparts (single-locus targets; 293T cells, day five): 34.7%

Substance: nCBE4-gam: Cas9 nickase-cytidine deaminase-gam, SEQ ID NO: 12, Addgene #100806 [reference compound]
- gRNAs with above control levels of base editing in genomic DNA (LINE-1 [4]): 4 out of 5
- deamination in the most highly edited single cell (LINE-1 [1]; [7]): up to 54.9%
- estimated loci edited in the most highly edited single cell (LINE-1 [1]; [7]): 14,300 loci
- Mean target deamination % (LINE-1 [1]): 6.08%
- Percent of cells with targeted deamination (LINE-1 [1]): 65.6%
- Number of cells with targeted deamination (LINE-1 [1]): 63
- C→T deamination in cells after a second round of editing of cloneK (LINE-1 [1]; day 2): up to 36.26%
- Number of analyzed cells (LINE-1 [2]): 12
- total number of chromosomal aberrations of top edited clones (HEK 293T): not significantly different than control groups
- deamination frequencies of surviving cell lines (LINE-1 [3]; 293T, HL1gR4, day 30): ≤ 1.37 % of LINE-1
- estimated sites edited in surviving cell lines (LINE-1 [3]; 293T, HL1gR4, day 30): ~356 sites
- Mean target deamination % (LINE-1 [3]): 1.28%
- Number of cells with targeted deamination (LINE-1 [3]): 4
- Percent of cells with targeted deamination (LINE-1 [3]): 33%
- non-specific nucleotide conversions in gRNA and PAM (LINE-1 [3]): some non-specific nucleotide conversions

Substance: HL1gR4: SpCas9 gRNA targeting LINE-1 ORF2, SEQ ID NO: 54 (guide ATTCTACCAGAGGTACAAGG; chemistry not given here)
- Percentage of reads (LINE-1 [5]; # of Mismatches 0): 64.1%
- Reads (LINE-1 [5]; # of Mismatches 0): 22780
- Percentage of reads (LINE-1 [5]; # of Mismatches 1): 18.4%
- Reads (LINE-1 [5]; # of Mismatches 1): 6546
- Percentage of reads (LINE-1 [5]; # of Mismatches 2): 3.2%
- Reads (LINE-1 [5]; # of Mismatches 2): 1131
- Percentage of reads (LINE-1 [5]; # of Mismatches 3): 0.4%
- Reads (LINE-1 [5]; # of Mismatches 3): 148
- Percentage of reads (LINE-1 [5]; # of Mismatches 4): 0.2%
- Reads (LINE-1 [5]; # of Mismatches 4): 63
- Percentage of reads (LINE-1 [5]; # of Mismatches 5): 0.0%
- Reads (LINE-1 [5]; # of Mismatches 5): 2
- Percentage of reads (LINE-1 [5]; # of Mismatches 6): 0.1%
- Reads (LINE-1 [5]; # of Mismatches 6): 26
- Percentage of reads (LINE-1 [5]; # of Mismatches 7): 0.0%
- Reads (LINE-1 [5]; # of Mismatches 7): 1
- Percentage of reads (LINE-1 [5]; # of Mismatches 8): 0.0%
- Reads (LINE-1 [5]; # of Mismatches 8): 1
- Percentage of reads (LINE-1 [5]; # of Mismatches 9): 0.0%
- Reads (LINE-1 [5]; # of Mismatches 9): 1
- Percentage of reads (LINE-1 [5]; # of Mismatches >9): 13%
- Reads (LINE-1 [5]; # of Mismatches >9): 4600

Substance: nCBE3: rAPOBEC1-XTEN-nCas9-UGI-NLS, SEQ ID NO: 10, Addgene #73021 [reference compound]
- mean deamination frequency compared with nCBE4-gam (LINE-1 [1]; [7]): significantly higher
- fate of edited cell lines before day 30 (LINE-1 [3]; 293T, HL1gR4): died
